Source: US6914064B2, “1,4-Disubstituted piperazine derivatives useful as uro-selective α1-adrenoceptor blockers” (Ranbaxy Laboratories Limited, priority 2000, dated 2005)
pKi: −log10 of the molar value.

Columns and labels:
α1D adrenoceptor (aorta) = biological target: T1, α1D adrenoceptor (aorta) (Rattus norvegicus, UniProt P23944); test: In vitro functional study, antagonism of norepinephrine-induced contraction of aorta; format: biochemical; conditions: tested compound at 0.1, 1 and 10 mM, read-out: α Adrenoceptor Subtype (pKB) α1D (converted)
T1 construct: Isolated tissues were mounted in organ bath containing Krebs Henseleit buffer; from tissue; host or cells: isolated aorta of male wistar rats
T1 sequence (P23944 1-561): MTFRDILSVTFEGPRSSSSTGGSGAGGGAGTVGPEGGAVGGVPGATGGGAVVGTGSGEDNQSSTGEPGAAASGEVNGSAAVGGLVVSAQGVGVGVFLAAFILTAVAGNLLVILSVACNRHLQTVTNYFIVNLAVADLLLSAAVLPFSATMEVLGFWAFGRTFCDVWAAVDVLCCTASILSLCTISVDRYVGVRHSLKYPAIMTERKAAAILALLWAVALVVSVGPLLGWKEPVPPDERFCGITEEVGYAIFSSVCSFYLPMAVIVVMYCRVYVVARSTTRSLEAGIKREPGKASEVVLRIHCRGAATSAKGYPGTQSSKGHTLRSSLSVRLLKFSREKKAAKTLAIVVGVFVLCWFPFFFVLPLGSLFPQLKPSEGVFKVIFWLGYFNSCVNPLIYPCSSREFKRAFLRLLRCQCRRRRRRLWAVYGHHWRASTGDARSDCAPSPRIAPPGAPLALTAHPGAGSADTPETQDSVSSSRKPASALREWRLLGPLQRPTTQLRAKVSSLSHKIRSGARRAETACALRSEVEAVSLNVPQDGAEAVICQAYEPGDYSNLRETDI
Source text: (§1) In order to study selectivity of action of these compounds towards different α-adrenoceptor subtypes, the ability of these compounds to antagonise α1-adrenoceptor agonist induced contractile response on aorta (α1Dprostate (α1A and spleen (α1B was studied. Aorta and spleen tissues were isolated from urethane anaesthetised (1.5 gm/kg) male wistar rats. Isolated tissues were mounted in organ bath containing Krebs Henseleit buffer of following composition (mM): NaCl 118; KCl 4.7; CaCl2 2.5; MgSO4. 7H2O 1.2; NaHCO3 25; KH2PO41.2; glucose 11.5. Buffer was maintained at 37° C. and aereated with a mixture of 95% O2 and 5% CO2. A resting tension of 2 g (aorta) or 1 g (spleen and prostate)was applied to tissues. Contractile response was monitored using a force displacement transducer and recorded on chart recorders. Tissues were allowed to equilibrate for 2 hours. At the end of equilibration period, concentration response curves to norepinephrine (aorta) and phenylepinephrine (spleen and prostate) were obtained in absence and presence of tested compound (at concentration of 0.1,1 and 10 mM). Antagonist affinity was calculated and expressed as pKB vales in Table II.

α1B adrenoceptor = biological target: T2, α1B adrenoceptor (Rattus norvegicus, UniProt P15823); test: Receptor binding assay, displacement of [3H]prazosin, rat liver membranes; conditions: [3H]prazosin displacement, rat liver membranes; read-out: α1B (Rat liver) Ki
T2 construct: from tissue; host or cells: rat liver membranes
T2 sequence (P15823 1-515): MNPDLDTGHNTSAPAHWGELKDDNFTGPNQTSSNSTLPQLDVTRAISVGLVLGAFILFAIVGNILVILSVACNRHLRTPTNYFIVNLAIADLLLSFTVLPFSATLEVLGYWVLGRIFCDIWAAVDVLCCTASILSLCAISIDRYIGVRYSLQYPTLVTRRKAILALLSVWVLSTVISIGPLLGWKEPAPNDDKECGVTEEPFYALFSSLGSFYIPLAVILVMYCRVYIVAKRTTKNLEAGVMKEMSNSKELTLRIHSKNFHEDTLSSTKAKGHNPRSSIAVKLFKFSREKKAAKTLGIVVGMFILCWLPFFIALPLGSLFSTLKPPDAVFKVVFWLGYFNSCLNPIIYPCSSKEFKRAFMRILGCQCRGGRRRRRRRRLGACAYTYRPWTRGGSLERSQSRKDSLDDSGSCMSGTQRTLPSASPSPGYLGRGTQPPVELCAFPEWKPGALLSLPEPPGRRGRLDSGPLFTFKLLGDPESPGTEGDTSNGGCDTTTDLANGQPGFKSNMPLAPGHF
Description: Receptor binding assays were performed using native α-adrenoceptors. The affinity of different compounds for α1A and α1B adrenoceptor subtypes was evaluated by studying their ability to displace specific [^3H]prazosin binding from the membranes of rat submaxillary and liver respectively (Michel et al, Br J Pharmacol, 98, 883-889 (1989)). The binding assays were performed according to U'Prichard et al. (Eur J Pharmacol, 50:87-89 (1978)) with minor modifications.
(§2) Submaxillary glands were isolated immediately after sacrifice. The liver was perfused with buffer (Tris HCl 50 mM, NaCl 100 mM, 10 mM EDTA pH 7.4). The tissues were homogenised in 10 volumes of buffer (Tris HCl 50 mM, NaCl 100 mM, EDTA 10 mM, pH 7.4). The homogenate was filtered through two layers of wet gauze and filtrate was centrifuged at 500 g for 10 min. The supernatant was subsequently centrifuged at 40,000 g for 45 min. The pellet thus obtained was resuspended in the same volume of assay buffer (Tris HCl 50 mM, EDTA 5 mM, pH 7.4) and were stored at −70° C. until the time of assay.
(§3) The membrane homogenates (150-250 μg protein) were incubated in 250 μl of assay buffer (Tris HCl 50 mM, EDTA 5 mM, pH 7.4) at 24-25° C. for 1 h. Non-specific binding was determined in the presence of 300 nM prazosin. The incubation was terminated by vacuum filtration over GF/B fibre filters. The filters were then washed with ice cold 50 mM Tris HCl buffer (pH 7.4). The filtermats were dried and bound radioactivity retained on filters was counted.The IC50 & Kd were estimated by using the non-linear curve fitting program using G Pad Prism software. The value of inhibition constant Ki was calculated from competitive binding studies by using Cheng & Prusoff equation (Cheng & Prusoff, Biochem Pharmacol, 1973,22: 3099-3108), Ki=IC50/(1+L/Kd) where L is the concentration of [^3H]prazosin used in the particular experiment (Table I).

[1] = biological target: T3, α1B adrenoceptor (spleen) (Rattus norvegicus, UniProt P15823); test: In vitro functional study, antagonism of phenylepinephrine-induced contraction of spleen; format: biochemical; conditions: tested compound at 0.1, 1 and 10 mM, read-out: α Adrenoceptor Subtype (pKB) α1B (converted)
T3 construct: Isolated tissues were mounted in organ bath containing Krebs Henseleit buffer; from tissue; host or cells: isolated spleen of male wistar rats
T3 sequence (P15823 1-515): T2 sequence (P15823 1-515)
Source text: as §1

α1A adrenoceptor = biological target: T4, α1A adrenoceptor (Rattus norvegicus, UniProt P43140); test: Receptor binding assay, displacement of [3H]prazosin, rat submaxillary membranes; conditions: for pKi: [3H]prazosin displacement, rat submaxillary membranes, read-out: α1A (Rat submaxillary) Ki; for Selectivity α1B/α1A: ratio of Ki α1B (rat liver) / α1A (rat submaxillary)
T4 construct: from tissue; host or cells: rat submaxillary gland membranes
T4 sequence (P43140 1-466): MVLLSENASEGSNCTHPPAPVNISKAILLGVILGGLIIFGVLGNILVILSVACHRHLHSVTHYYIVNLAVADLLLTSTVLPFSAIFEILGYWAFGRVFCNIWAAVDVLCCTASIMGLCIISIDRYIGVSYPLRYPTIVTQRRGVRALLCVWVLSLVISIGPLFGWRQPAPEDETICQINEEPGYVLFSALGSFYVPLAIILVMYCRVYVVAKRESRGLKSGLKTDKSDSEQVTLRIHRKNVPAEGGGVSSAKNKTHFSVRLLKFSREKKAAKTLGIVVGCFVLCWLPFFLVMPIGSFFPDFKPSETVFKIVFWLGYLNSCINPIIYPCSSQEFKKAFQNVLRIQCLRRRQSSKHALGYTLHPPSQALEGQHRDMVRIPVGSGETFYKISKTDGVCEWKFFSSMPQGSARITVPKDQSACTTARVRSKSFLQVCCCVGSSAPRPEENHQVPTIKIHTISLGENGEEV
Description: Receptor binding assays were performed using native α-adrenoceptors.
as §2
as §3, with “software.” for “software. The value of inhibition constant Ki was calculated from competitive binding studies by using Cheng & Prusoff equation (Cheng & Prusoff, Biochem Pharmacol, 1973,22: 3099-3108), Ki=IC50/(1+L/Kd) where L is the concentration of [^3H]prazosin used in the particular experiment (Table I).”

[2] = biological target: T5, α1A adrenoceptor (prostate) (Rattus norvegicus, UniProt P43140); test: In vitro functional study, antagonism of phenylepinephrine-induced contraction of prostate; format: biochemical; conditions: for Selectivity α1A/α1B / Selectivity α1A/α1D: functional assays, from pKB values; for Kb: prostate, phenylepinephrine, tested compound at 0.1, 1 and 10 mM, read-out: α Adrenoceptor Subtype (pKB) α1A (converted)
T5 construct: from tissue; host or cells: isolated prostate tissue
T5 sequence (P43140 1-466): T4 sequence (P43140 1-466)
Source text: as §1

Compound | Kb (α1D adrenoceptor (aorta)) [nM] | pKi (α1B adrenoceptor) | Kb [1] [nM] | melting point [°C] | pKi (α1A adrenoceptor) | Selectivity α1B/α1A (α1A adrenoceptor) | Selectivity α1A/α1B [2] | Kb [2] [nM] | Selectivity α1A/α1D [2]
COc1ccc(N2CCN(CCCN3C(=O)C4CC=CCC4C3=O)CC2)c(OC)c1.Cl (stereo not drawn) [Compound 21, 2-[3-{4-(2,4-Dimethoxyphenyl)piperazin-1-yl}propyl]-3a,4,7,7a-tetrahydro-1H-isoindole-1,3(2H)-dione hydrochloride] | – | < 6.30 | – | 226 to 227 | < 6.30 | 1 | – | – | –
COc1ccc(OC)c(N2CCN(CCCN3C(=O)C4CC=CCC4C3=O)CC2)c1.Cl (stereo not drawn) [Compound 26, 2-[3-{4-(2,5-Dimethoxyphenyl)piperazin-1-yl}propyl]-3a,4,7,7a-tetrahydro-1H-isoindole-1,3(2H)-dione hydrochloride] | – | < 6.30 | – | 193 to 195 | 7.42 | 13 | – | – | –
CC(C)(C)c1ccc(N2CCN(CCCN3C(=O)C4CC=CCC4C3=O)CC2)cc1.Cl (stereo not drawn) [Compound 27, 2-[3-{4-(4-tert-Butylphenyl)piperazin-1-yl}propyl]-3a,4,7,7a-tetrahydro-1H-isoindole-1,3(2H)-dione hydrochloride] | – | < 6.30 | – | 264 to 265 | < 6.30 | 1 | – | – | –
COc1ccccc1N1CCN(CC(C)CN2C(=O)C3CC=CCC3C2=O)CC1.Cl (stereo not drawn) [Compound 30, 2-[3-{4-(2-Methoxyphenyl)piperazin-1-yl}-2-methylpropyl]-3a,4,7,7a-tetrahydro-1H-isoindole-1,3(2H)-dione hydrochloride] | – | 6.21 | – | 184 to 185 | 7.32 | 13 | – | – | –
CCOc1ccccc1N1CCN(C(C)CCN2C(=O)C3CC=CCC3C2=O)CC1.Cl (stereo not drawn) [Compound 31, 2-[3-{4-(2-Ethoxyphenyl)piperazin-1-yl}-3-methylpropyl]-3a,4,7,7a-tetrahydro-1H-isoindole-1,3(2H)-dione hydrochloride] | 16.2 | 6.63 | – | 246 to 248 | 8.68 | 110 | – | 5.01 | 3.24

More lines, now with the values ahead:

Kb (α1D adrenoceptor (aorta)) [nM] | pKi (α1B adrenoceptor) | Kb [1] [nM] | melting point [°C] | pKi (α1A adrenoceptor) | Selectivity α1B/α1A (α1A adrenoceptor) | Selectivity α1A/α1B [2] | Kb [2] [nM] | Selectivity α1A/α1D [2] | Compound
0.891 | 7.54 | 3.98 | 163 to 165 | 9.47 | 85 | 3.4 | 1.17 | – | COc1ccc(F)cc1N1CCN(CCCN2C(=O)C3CC=CCC3C2=O)CC1.Cl (stereo not drawn) [Compound 08, 2-[3-{4-(2-Methoxy-5-fluorophenyl)piperazin-1-yl}propyl]-3a,4,7,7a-tetrahydro-1H-isoindole-1,3(2H)-dione hydrochloride]
2.51 | 7.21 | 15.8 | 232.5 to 233.5 | 9.52 | 207 | 23 | 0.676 | 3.6 | CCc1ccccc1N1CCN(CCCN2C(=O)C3CC=CCC3C2=O)CC1.Cl (stereo not drawn) [Compound 09, 2-[3-{4-(2-Ethylphenyl)piperazin-1-yl}propyl]-3a,4,7,7a-tetrahydro-1H-isoindole-1,3(2H)-dione hydrochloride]
51.3 | 6.42 | 813 | 231 to 232 | 8.20 | 61 | 89 | 9.12 | 5.6 | Cl.O=C1C2CC=CCC2C(=O)N1CCCN1CCN(c2ccccc2)CC1 (stereo not drawn) [Compound 13, 2-[3-{4-(Phenyl)piperazin-1-yl}propyl]-3a,4,7,7a-tetrahydro-1H-isoindole-1,3(2H)-dione hydrochloride]
– | < 6.30 | – | 223 to 224 | 6.68 | 2.4 | – | – | – | Cc1cccc(C)c1N1CCN(CCCN2C(=O)C3CC=CCC3C2=O)CC1.Cl (stereo not drawn) [Compound 22, 2-[3-{4-(2,6-Dimethylphenyl)piperazin-1-yl}propyl]-3a,4,7,7a-tetrahydro-1H-isoindole-1,3(2H)-dione hydrochloride]
– | < 6.30 | – | 267 to 268 | < 6.30 | 1 | – | – | – | COc1cccc(O)c1N1CCN(CCCN2C(=O)C3CC=CCC3C2=O)CC1.Cl (stereo not drawn) [Compound 28, 2-[3-{4-(2-Methoxy-6-hydroxyphenyl)piperazin-1-yl}propyl]-3a,4,7,7a-tetrahydro-1H-isoindole-1,3(2H)-dione hydrochloride]
